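Grown in 96-well plates, cells were treated for 48 hours with each compound at five concentrations. Insufficient inhibition: endpoint recorded as highest concentration tested. At the GI50, growth is halved. Definition used: TGI = concentration required for complete inhibition of growth.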
Legend:
Experiment in all cases: NCI tumour cell line growth inhibition, 48 h
786-0 renal = tested on: 786-0 renal
A498 renal = tested on: A498 renal
A549 NSCLC = tested on: A549 NSCLC
ACHN renal = tested on: ACHN renal
BT-549 breast = tested on: BT-549 breast
CAKI-1 renal = tested on: CAKI-1 renal
CCRF-CEM leukemia = tested on: CCRF-CEM leukemia
COLO 205 colon = tested on: COLO 205 colon
DU-145 prostate = tested on: DU-145 prostate
EKVX NSCLC = tested on: EKVX NSCLC
HCC-2998 colon = tested on: HCC-2998 colon
HCT-116 colon = tested on: HCT-116 colon
HCT-15 colon = tested on: HCT-15 colon
HL-60(TB) leukemia = tested on: HL-60(TB) leukemia
HOP-62 NSCLC = tested on: HOP-62 NSCLC
HOP-92 NSCLC = tested on: HOP-92 NSCLC
HS 578T breast = tested on: HS 578T breast
HT29 colon = tested on: HT29 colon
IGROV1 ovarian = tested on: IGROV1 ovarian
K-562 leukemia = tested on: K-562 leukemia
KM12 colon = tested on: KM12 colon
LOX IMVI melanoma = tested on: LOX IMVI melanoma
M14 melanoma = tested on: M14 melanoma
MALME-3M melanoma = tested on: MALME-3M melanoma
MCF7 breast = tested on: MCF7 breast
MDA-MB-231 breast = tested on: MDA-MB-231 breast
MDA-MB-435 = tested on: MDA-MB-435
MOLT-4 leukemia = tested on: MOLT-4 leukemia
NCI-H226 lung = tested on: NCI-H226 lung
NCI-H23 lung = tested on: NCI-H23 lung
NCI-H460 lung = tested on: NCI-H460 lung
NCI-H522 lung = tested on: NCI-H522 lung
NCI/ADR-RES ovarian = tested on: NCI/ADR-RES ovarian
OVCAR-3 ovarian = tested on: OVCAR-3 ovarian
OVCAR-4 ovarian = tested on: OVCAR-4 ovarian
OVCAR-5 ovarian = tested on: OVCAR-5 ovarian
OVCAR-8 ovarian = tested on: OVCAR-8 ovarian
PC-3 prostate = tested on: PC-3 prostate
RPMI-8226 leukemia = tested on: RPMI-8226 leukemia
RXF 393 renal = tested on: RXF 393 renal
SF-268 CNS = tested on: SF-268 CNS
SF-295 CNS = tested on: SF-295 CNS
SF-539 CNS = tested on: SF-539 CNS
SK-MEL-2 melanoma = tested on: SK-MEL-2 melanoma
SK-MEL-28 melanoma = tested on: SK-MEL-28 melanoma
SK-MEL-5 melanoma = tested on: SK-MEL-5 melanoma
SK-OV-3 ovarian = tested on: SK-OV-3 ovarian
SN12C renal = tested on: SN12C renal
SNB-19 CNS = tested on: SNB-19 CNS
SNB-75 CNS = tested on: SNB-75 CNS
SR leukemia = tested on: SR leukemia
SW-620 colon = tested on: SW-620 colon
T-47D breast = tested on: T-47D breast
TK-10 renal = tested on: TK-10 renal
U251 CNS = tested on: U251 CNS
UACC-257 melanoma = tested on: UACC-257 melanoma
UACC-62 melanoma = tested on: UACC-62 melanoma
UO-31 renal = tested on: UO-31 renal

CC(C)=CC(=O)OCC(=O)O[C@@H]1C[C@]2(C(C)C)O[C@@]1(C)[C@@H]1CC[C@@H](C)[C@H]1[C@@H]2OC(=O)/C=C/c1ccccc1
GI50 (786-0 renal): 7.21 µM
TGI (786-0 renal): > 100 µM
GI50 (A498 renal): 0.179 µM
TGI (A498 renal): 0.679 µM
GI50 (A549 NSCLC): > 57.2 µM
TGI (A549 NSCLC): > 100 µM
GI50 (ACHN renal): 0.3 µM
TGI (ACHN renal): > 19.6 µM
GI50 (BT-549 breast): 2.11 µM
TGI (BT-549 breast): > 73.2 µM
GI50 (CAKI-1 renal): 0.346 µM
GI50 (CCRF-CEM leukemia): 29.6 µM
TGI (CCRF-CEM leukemia): > 100 µM
GI50 (COLO 205 colon): > 48.5 µM
TGI (COLO 205 colon): > 65.3 µM
GI50 (DU-145 prostate): > 69.2 µM
TGI (DU-145 prostate): > 100 µM
GI50 (EKVX NSCLC): > 51 µM
TGI (EKVX NSCLC): > 100 µM
GI50 (HCC-2998 colon): > 57.2 µM
TGI (HCC-2998 colon): > 100 µM
GI50 (HCT-116 colon): 11 µM
TGI (HCT-116 colon): > 100 µM
GI50 (HCT-15 colon): 42.1 µM
TGI (HCT-15 colon): > 100 µM
GI50 (HL-60(TB) leukemia): 11.6 µM
TGI (HL-60(TB) leukemia): > 69.4 µM
GI50 (HOP-62 NSCLC): > 62.3 µM
TGI (HOP-62 NSCLC): > 100 µM
GI50 (HOP-92 NSCLC): 5.18 µM
TGI (HOP-92 NSCLC): > 75.4 µM
GI50 (HS 578T breast): 0.064 µM
TGI (HS 578T breast): 0.548 µM
GI50 (HT29 colon): > 56.4 µM
TGI (HT29 colon): > 100 µM
GI50 (IGROV1 ovarian): > 61.8 µM
TGI (IGROV1 ovarian): > 100 µM
GI50 (K-562 leukemia): 7.75 µM
TGI (K-562 leukemia): > 100 µM
GI50 (KM12 colon): > 56 µM
TGI (KM12 colon): > 100 µM
GI50 (LOX IMVI melanoma): 33.4 µM
TGI (LOX IMVI melanoma): > 70.5 µM
GI50 (M14 melanoma): > 57.8 µM
TGI (M14 melanoma): > 100 µM
GI50 (MALME-3M melanoma): > 55.5 µM
TGI (MALME-3M melanoma): > 100 µM
GI50 (MCF7 breast): 35.3 µM
TGI (MCF7 breast): > 100 µM
GI50 (MDA-MB-231 breast): > 51.7 µM
TGI (MDA-MB-231 breast): > 85.2 µM
GI50 (MDA-MB-435): > 67.9 µM
TGI (MDA-MB-435): > 100 µM
GI50 (MOLT-4 leukemia): 43.4 µM
TGI (MOLT-4 leukemia): > 100 µM
GI50 (NCI-H226 lung): 9.47 µM
TGI (NCI-H226 lung): > 94.1 µM
GI50 (NCI-H23 lung): > 50.4 µM
TGI (NCI-H23 lung): > 96.4 µM
GI50 (NCI-H460 lung): > 63 µM
TGI (NCI-H460 lung): > 100 µM
GI50 (NCI-H522 lung): > 62.1 µM
TGI (NCI-H522 lung): > 100 µM
GI50 (NCI/ADR-RES ovarian): 2.25 µM
TGI (NCI/ADR-RES ovarian): > 85.5 µM
GI50 (OVCAR-3 ovarian): > 42.3 µM
TGI (OVCAR-3 ovarian): > 100 µM
GI50 (OVCAR-4 ovarian): 30.2 µM
TGI (OVCAR-4 ovarian): > 100 µM
GI50 (OVCAR-5 ovarian): > 62.7 µM
TGI (OVCAR-5 ovarian): > 100 µM
GI50 (OVCAR-8 ovarian): 0.912 µM
TGI (OVCAR-8 ovarian): > 72.9 µM
GI50 (PC-3 prostate): 6.01 µM
TGI (PC-3 prostate): > 100 µM
GI50 (RPMI-8226 leukemia): 7.89 µM
TGI (RPMI-8226 leukemia): > 100 µM
GI50 (RXF 393 renal): 0.382 µM
TGI (RXF 393 renal): 11.7 µM
GI50 (SF-268 CNS): > 38.1 µM
TGI (SF-268 CNS): > 100 µM
GI50 (SF-295 CNS): > 48.3 µM
TGI (SF-295 CNS): > 100 µM
GI50 (SF-539 CNS): > 72.7 µM
TGI (SF-539 CNS): > 100 µM
GI50 (SK-MEL-2 melanoma): > 56.4 µM
TGI (SK-MEL-2 melanoma): > 85.9 µM
GI50 (SK-MEL-28 melanoma): > 63.3 µM
TGI (SK-MEL-28 melanoma): > 100 µM
GI50 (SK-MEL-5 melanoma): 49.2 µM
TGI (SK-MEL-5 melanoma): > 66.1 µM
GI50 (SK-OV-3 ovarian): > 55.7 µM
TGI (SK-OV-3 ovarian): > 100 µM
GI50 (SN12C renal): 5.9 µM
TGI (SN12C renal): > 93.2 µM
GI50 (SNB-19 CNS): > 58.5 µM
TGI (SNB-19 CNS): > 100 µM
GI50 (SNB-75 CNS): 34.2 µM
TGI (SNB-75 CNS): > 87.5 µM
GI50 (SR leukemia): 11.1 µM
TGI (SR leukemia): > 100 µM
GI50 (SW-620 colon): > 60.4 µM
TGI (SW-620 colon): > 100 µM
GI50 (T-47D breast): 18.9 µM
TGI (T-47D breast): > 100 µM
GI50 (TK-10 renal): > 70.4 µM
TGI (TK-10 renal): > 100 µM
GI50 (U251 CNS): > 56.4 µM
TGI (U251 CNS): > 100 µM
GI50 (UACC-257 melanoma): > 47.5 µM
TGI (UACC-257 melanoma): > 94.3 µM
GI50 (UACC-62 melanoma): 24.4 µM
TGI (UACC-62 melanoma): > 100 µM
GI50 (UO-31 renal): 0.239 µM
TGI (UO-31 renal): 2.36 µM

Reference: PubChem BioAssay (NCI)
